Among the test systems are 786-0; ACHN; EKVX; HOP-62; HOP-92; MDA-MB-231; Malme-3M; NCI-H23; NCI-H460; OVCAR-3; OVCAR-4; RPMI-8226; SF-295; SK-MEL-2; SK-MEL-5; SK-OV-3; SNB-75; TK-10; UACC-257.
Assay in all cases: inhibition of tumour cell growth, NCI panel, 48 h

The results in this text go back to ChEMBL document CHEMBL1201862, “PubChem BioAssay data set” (2004).

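Where inhibition never reached the appropriate level, the endpoint shown equals the highest concentration tested. Otherwise, values were interpolated linearly from a five-concentration, 48-hour dose response in 96-well plates. The concentration for 50% growth inhibition is given as GI50.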 Calls of active or inactive are those of the source. Rule as the data show it: active = GI50 up to about 1.1 µM and inactive = higher. Where only a bound is given, the exact number is not on record here.

For the compound `COc1cccc(C2c3cc4c(cc3OC(N3CCOCC3)C2C)OCO4)c1O` (configuration not stated), the GI50 in the test on 786-0 was 5.6 µM (inactive); in the test with ACHN, 10.1 µM (inactive); in the test on EKVX, 9.14 µM (inactive); with HOP-62, 4.27 µM (inactive); in the test with HOP-92, 12.1 µM (inactive); with MDA-MB-231, 11.6 µM (inactive). For the same compound, the GI50 is 4.99 µM (inactive) in the test with Malme-3M; 6.73 µM (inactive) in the test on NCI-H23; 3.55 µM (inactive) in the test with NCI-H460; 3.64 µM (inactive) in the test on OVCAR-3; 9.86 µM (inactive) with OVCAR-4; 2.83 µM (inactive) in the test with RPMI-8226. The GI50 with SF-295 is 3.64 µM (inactive); with SK-MEL-2, 7.1 µM (inactive); in the test on SK-MEL-5, 3.6 µM (inactive); in the test with SK-OV-3 it was 5.56 µM (inactive); in the test with SNB-75, 7.29 µM (inactive); with TK-10 it was 8.24 µM (inactive). The GI50 in the test with UACC-257 was 9.14 µM (inactive).
As for `COC(=O)C1C(OS(=O)(=O)O)CCC2CN3CCc4c([nH]c5ccccc45)C3CC21` (configuration not stated), the GI50 with 786-0, with ACHN, in the test on EKVX, in the test on HOP-62, with HOP-92 and with MDA-MB-231 was > 100 µM (inactive) in each case. For the same compound, the GI50 with Malme-3M, in the test with NCI-H23, in the test on NCI-H460, in the test on OVCAR-3, with OVCAR-4 and in the test with RPMI-8226 was > 100 µM (inactive) each time. The GI50 in the test with SF-295, in the test on SK-MEL-2, with SK-MEL-5, with SK-OV-3, in the test on SNB-75 and in the test on TK-10 was > 100 µM (inactive) in each case. For the same compound, the GI50 in the test with UACC-257 was > 100 µM (inactive).
On to `O=c1c2nc(-c3ccccc3)oc2n(-c2ccccc2)c(=O)n1-c1ccccc1`, for which the GI50 is 17.5 µM (inactive) with 786-0; 25.9 µM (inactive) with ACHN; 28.4 µM (inactive) in the test with EKVX; 17.5 µM (inactive) in the test on HOP-62; 14.4 µM (inactive) in the test with HOP-92; 29.3 µM (inactive) in the test on MDA-MB-231. Also, the GI50 is > 31.6 µM (inactive) with Malme-3M; 43.2 µM (inactive) with NCI-H23; 31.8 µM (inactive) with NCI-H460; 25.8 µM (inactive) in the test with OVCAR-3; 18.8 µM (inactive) in the test on OVCAR-4; > 46.5 µM (inactive) in the test on RPMI-8226. For the same compound, the GI50 with SF-295 was 19.1 µM (inactive); with SK-MEL-2, > 46.5 µM (inactive); in the test on SK-MEL-5 it was 23.7 µM (inactive); in the test with SK-OV-3, 21.5 µM (inactive); in the test with SNB-75, 18.1 µM (inactive); in the test with TK-10, 15 µM (inactive). Also, the GI50 in the test with UACC-257 is 36.3 µM (inactive).
Take `CCC(N)(C(=O)O)C(C)C` (configuration not stated): the GI50 in the test with 786-0 was > 100 µM (inactive); with ACHN, > 100 µM (inactive); in the test on EKVX it was > 100 µM (inactive); in the test with HOP-62, > 100 µM (inactive); in the test with HOP-92 it was 34.8 µM (inactive); with MDA-MB-231 it was > 100 µM (inactive). Also, the GI50 in the test on Malme-3M, in the test with NCI-H23, with NCI-H460, in the test on OVCAR-3, in the test with OVCAR-4 and in the test on RPMI-8226 was > 100 µM (inactive) in each case. Moreover, the GI50 in the test with SF-295, in the test with SK-MEL-2, in the test with SK-MEL-5, in the test on SK-OV-3, in the test with SNB-75 and with TK-10 was > 100 µM (inactive) in each case. Moreover, in the test with UACC-257, the GI50 is > 100 µM (inactive).
Consider `[Se]=P(c1ccccc1)(c1ccccc1)c1ccc(C(c2ccccc2)=P(c2ccccc2)(c2ccccc2)c2ccccc2)cc1`, for which the GI50 was 1.2 µM (inactive) in the test with 786-0; 2.44 µM (inactive) with ACHN; 1.89 µM (inactive) in the test with EKVX; 1.13 µM (inactive) in the test with HOP-62; 0.357 µM (active) in the test with HOP-92; 0.661 µM (active) in the test with MDA-MB-231. Further, the GI50 in the test with Malme-3M is 0.499 µM (active); with NCI-H23 it was 0.891 µM (active); with NCI-H460, 1.28 µM (inactive); in the test on OVCAR-3, 0.621 µM (active); with OVCAR-4 it was 0.443 µM (active); with RPMI-8226 it was 0.313 µM (active). Also, the GI50 with SF-295 was 2.27 µM (inactive); in the test with SK-MEL-2, 0.957 µM (active); in the test on SK-MEL-5 it was 0.505 µM (active); with SK-OV-3, 2.05 µM (inactive); in the test on SNB-75 it was 0.431 µM (active); in the test with TK-10, 1.41 µM (inactive). The GI50 in the test on UACC-257 is 0.817 µM (active).
As to `O=C1OS2(OCc3cccc4cccc2c34)c2ccccc21` (configuration not stated), the GI50 in the test on 786-0, in the test with ACHN, in the test with EKVX, in the test with HOP-62, in the test with HOP-92 and in the test on MDA-MB-231 was > 100 µM (inactive) in each case. The GI50 in the test on Malme-3M, in the test with NCI-H23, in the test with NCI-H460, in the test on OVCAR-3, in the test with OVCAR-4 and with RPMI-8226 was > 100 µM (inactive) in each case. In addition, the GI50 in the test on SF-295, in the test with SK-MEL-2, in the test with SK-MEL-5, with SK-OV-3, in the test on SNB-75 and with TK-10 was > 100 µM (inactive) in each case. The GI50 with UACC-257 was > 100 µM (inactive).
On to `O=C(O)[C@@H]1NC[C@H]2C(Br)=NO[C@H]21`, for which the GI50 with 786-0, in the test on ACHN, in the test on EKVX, with HOP-62, with HOP-92 and in the test on MDA-MB-231 was > 100 µM (inactive) each time. The GI50 in the test with Malme-3M was > 100 µM (inactive); in the test with NCI-H23, > 100 µM (inactive); with NCI-H460 it was 78.2 µM (inactive); in the test on OVCAR-3, > 100 µM (inactive); with OVCAR-4, > 100 µM (inactive); with RPMI-8226 it was > 100 µM (inactive). For the same compound, the GI50 was > 100 µM (inactive) in the test on SF-295; > 100 µM (inactive) in the test on SK-MEL-2; 69.5 µM (inactive) in the test on SK-MEL-5; > 100 µM (inactive) in the test on SK-OV-3; > 100 µM (inactive) in the test with SNB-75; 94.8 µM (inactive) in the test on TK-10. Besides, the GI50 in the test on UACC-257 is > 100 µM (inactive).
Turning to `O=c1c(C(c2ccc3ccccc3c2)c2c(O)oc3ccccc3c2=O)c(O)oc2ccccc12`, the GI50 in the test with 786-0 is 25.6 µM (inactive); with ACHN, 20.6 µM (inactive); in the test with EKVX, 31.9 µM (inactive); in the test with HOP-62, 39.3 µM (inactive); in the test with HOP-92, 29.2 µM (inactive); in the test with MDA-MB-231 it was 22.6 µM (inactive). The GI50 in the test with Malme-3M is 17.7 µM (inactive); in the test with NCI-H23, 23.2 µM (inactive); with NCI-H460, 27.7 µM (inactive); in the test on OVCAR-3, 32.5 µM (inactive); in the test on OVCAR-4, 26.7 µM (inactive); in the test with RPMI-8226 it was 32.4 µM (inactive). The GI50 is 50.4 µM (inactive) with SF-295; 34.5 µM (inactive) in the test on SK-MEL-2; 22.6 µM (inactive) in the test on SK-MEL-5; 50.9 µM (inactive) with SK-OV-3; 18.8 µM (inactive) with SNB-75; 61.8 µM (inactive) in the test on TK-10. For the same compound, the GI50 in the test with UACC-257 was 51.5 µM (inactive).
